Patent US11241455B2, “Methods of treating disease by metabolic control of T-cell differentiation” (The J. David Gladstone Institutes, a testamentary trust …, priority 2016, dated 2022)

How the values were obtained:
[1] = system: differentiating TH17 cells; test: TH17 differentiation of CD4 naïve T cells (IL17F-RFP/FOXP3-GFP reporter or intracellular staining of IL-17 and FOXP3); type: cell-based, mouse; conditions: for rescue of the inhibitory effect of AOA on TH17 cell differentiation: in the presence of AOA, day 6, 0.75 mM α-KG, 0.5 mM 2-HG, 0.5 mM succinate, 50 μM fumarate, 0.5 mM malate, 0.5 mM citrate, 1 mM NAC, 1 mM GSH
Experimental: (§1) CD4 naïve T cells (CD4+CD25-CD62^highCD44^low) were obtained from interleukin (IL)-17F-red fluorescent protein (RFP)/FOXP3-green fluorescent protein (GFP) mice, which were characterized previously, or wild-type C57/BL6 mice, by cell sorting. 0.4 million cells were plated into 48 wells coated with anti-mouse CD3 (clone 145-2C11, eBioscience) […] and anti-mouse CD28 (clone 37.51, eBioscience) (1 μg/ml). The differentiation media for these naïve T cells was as follows: 0.5 ng/ml (or indicated) transforming growth factor (TGF) β, 200 U/ml mouse IL-2, 2 μg/ml anti-interferon (IFN) γ and 2 μg/ml anti-mouse IL4 for differentiation into iTreg cells; and 2.5 ng/ml TGFβ, 10 ng/ml mouse IL-1β, 10 ng/ml mouse IL-6, 10 ng/ml mouse IL-23, 2 μg/ml anti-mouse IFNγ, and anti-mouse IL-4 for differentiating into TH17 cells. The cells were supplemented with new medium at day 4. In cases in which small-molecule compounds were present, the fresh medium containing the same concentration of compounds was used. When necessary, the individual metabolite was added into the T-cell culture 6 hours later after initial cell plating. On day 6, the cells were analyzed for IL17F-RFP and FOXP3-GFP or the cells were collected and restimulated for 4-6 hours with PMA, inomycin, and Golgi-stop for intracellular staining in absence of indicated compounds.
To identify small molecules that regulate cell-fate switching of TH17/iTreg cells and to further understand the regulation of the TH17/iTreg balance, 10,000 individual small molecules were phenotypically screened using CD4 naïve T cells from IL-17F-RFP/FOXP3-GFP mice. The naïve T cells were cultured under optimal TH17 differentiation conditions and compounds that could reprogram TH17 differentiation toward iTreg cell fate were identified using the reporter readout. Briefly, after TH17 differentiation for 24 hours, compounds were added to TH17 culture, and the treatment was continued for an additional 5 days before the cells were analyzed for IL17F-RFP and FOXP3-GFP expression by high-throughput fluorescence-activated cell sorting (FACS) (FIG. 5a). […] This effect of reprogrammed differentiation was further confirmed by intracellular immunostaining of IL-17 and FOXP3 (FIG. 1a).

[2] = system: differentiating iTreg cells; test: iTreg differentiation of CD4 naïve T cells (FOXP3-GFP reporter or intracellular staining of FOXP3); type: cell-based, mouse; conditions: for reversal of the enhancing effect of AOA on iTreg cell differentiation: in the presence of AOA, day 5, 0.5 mM α-KG, 0.125 mM 2-HG (0.25 mM in FIG. 2g), 0.5 mM succinate, 50 μM fumarate, 0.5 mM malate, 0.5 mM citrate
Experimental: as §1, with “On day 6, the cells were analyzed for IL17F-RFP and FOXP3-GFP or the cells were collected and restimulated for 4-6 hours with PMA, inomycin, and Golgi-stop for intracellular staining in absence of indicated compounds.” left out

[3] = system: FOXP3, Il17, Il17f, and Rorc mRNA in TH17 cells; test: mRNA expression analysis by qRT-PCR in TH17 cells; type: cell-based, mouse; conditions: normalized to β-actin
Experimental: (§2) At the end of differentiation (day 6), T cells were re-stimulated with plate-coated anti-CD3 and anti-CD28 for 5 hours in the absence of any small-molecule compounds or metabolites. Quantitative reverse transcriptase polymerase chain reaction (qRT-PCR) was performed to evaluate mRNA expression of FOXP3, Il17, Il17f, and Rorc. For differentiating TH17 or iTreg cells, cells were collected on day 2.5 or at the indicated time for mRNA expression analysis. The expression was normalized to β-actin.

[4] = system: FOXP3 mRNA in iTreg cells; test: mRNA expression analysis by qRT-PCR in iTreg cells; type: cell-based, mouse; conditions: normalized to β-actin
Experimental: as §2

[5] = system: FOXP3 promoter and its intronic CpG island; test: Methylation analysis by bisulfite sequencing, T cells under TH17 condition; type: cell-based, mouse; conditions: 0.5 mM dimethyl R-2-HG (day 4) or AOA (day 6), male mice
Experimental: (§3) The method is essentially the same as described previously (Kim, et al. J Exp Med 204 (7), 1543-1551 (2007)). Briefly, genomic DNA was purified with Blood & Cell Culture DNA Midi Kit (Qiagen). Bisufite conversion of genomic DNA was performed using Epitect® bisulfite kit (Qiagen), according to the manufacture's instruction. The PCR product was run on 2% agarose, purified and cloned using TOPO® TA Cloning® Kit with PCR®4. Clones are picked for Sanger sequencing.

[6] = system: FOXP3 promoter and its intronic CpG island; test: Methylation analysis by bisulfite sequencing, T cells under iTreg condition; type: cell-based, mouse; conditions: iTreg condition (day 5); 0.5 mM dimethyl R-2-HG or AOA; male mice
Experimental: as §3

[7] = target: T1, Got1 (Mus musculus, UniProt P05201); test: Retroviral shRNA knockdown of Got1 in differentiating TH17 cells, intracellular staining of FOXP3 and IL-17; type: cell-based; conditions: sorted GFP+ cells, TH17 condition, day 6; versus empty vector or GFP− cells
T1 construct: Got1 was knocked down in differentiating TH17 cells with retrovirus containing GFP and shRNA against Got1; endogenous in cells; host or cells: primary mouse CD4 naive T cells differentiated under TH17 conditions
Experimental: (§4) Short hairpin RNAs (ShRNAs) (synthesized DNA oligos), after annealing, were cloned into PMKO.1-GFP retrovirus vector. The plasmids and pCL-ECO (1:1) were transfected into 293T cells with Fugene® HD4 (Promega). The medium was changed 6 hours after transfection, and the cells were further cultured for 48-72 hours. The supernatant was then collected and filtered using […]. The supernatant containing the viruses was added into pre-activated CD4+ T cells (20 hours after initial plating). The cells were spin-infected at 1000 g for 2 hours and cultured in incubator for another 2 hours. The cells were washed and cultured under TH17 conditions for an additional 4 days. New medium was added if necessary. At day 5, the cells were collected for sorting GFP+ cells and GFP− cells. Sorted cells were further cultured until day 6, and re-stimulated for intracellular staining or mRNA analysis, as described above.

[8] = system: IDH1 and IDH2; test: Retroviral shRNA knockdown of IDH1 and/or IDH2 in T cells under TH17 condition, intracellular staining of IL-17 and FOXP3; type: cell-based, mouse; conditions: sorted GFP+ cells cultured under TH17 condition
Experimental: as §4
2-HG, which was originally identified in cancer cells harboring isocitrate dehydrogenase (IDH) 1/2 mutation, is also known to be produced via wild-type IDH1 and IDH2 reactions as well. Among all the dehydrogenases examined in this study, only IDH1 and 2 are highly expressed in differentiating TH17 cells (FIGS. 10a, 10d). […] GFP+ cells and GFP− cells were sorted and analyzed by intracellular staining of IL-17 and FOXP3.

[9] = system: IDH1 and/or IDH2 mRNA; test: mRNA expression of IDH1 and IDH2 in shRNA-infected GFP+ cells; type: cell-based, mouse; conditions: GFP+ cells re-stimulated with anti-CD3 and anti-CD28; normalized to β-actin
Experimental: as §2
as §4, with “Sorted cells were further cultured until day 6, and re-stimulated for intracellular staining or mRNA analysis, as described above.” left out

[10] = re-stimulated with anti-CD3 and anti-CD28 for 5 hours

T1 sequence (P05201 whole entry): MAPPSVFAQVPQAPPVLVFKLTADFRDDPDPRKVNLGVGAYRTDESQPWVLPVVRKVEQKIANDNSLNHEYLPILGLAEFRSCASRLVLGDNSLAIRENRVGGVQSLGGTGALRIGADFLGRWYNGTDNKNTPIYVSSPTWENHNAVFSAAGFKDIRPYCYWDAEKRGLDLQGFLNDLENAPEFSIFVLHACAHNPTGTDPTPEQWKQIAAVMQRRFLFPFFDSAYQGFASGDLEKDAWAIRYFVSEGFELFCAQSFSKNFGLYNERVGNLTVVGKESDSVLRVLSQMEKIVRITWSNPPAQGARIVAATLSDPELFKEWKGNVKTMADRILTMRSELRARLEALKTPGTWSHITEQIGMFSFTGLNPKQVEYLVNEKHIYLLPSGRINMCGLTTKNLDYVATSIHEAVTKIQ

## COC(=O)CC[C@@H](O)C(=O)OC [Dimethyl R-2-HG, (R)-dimethyl 2-hydroxyglutarate]
[1]; in the absence of AOA, exogenously added dimethyl metabolite
  direct effect on TH17 cell differentiation (IL-17/IL-17F and FOXP3 expression): directly promoted TH17 cell differentiation by up-regulating IL-17/IL-17F expression and down-regulating FOXP3 expression in a dose-dependent manner
[1]
  rescue of the inhibitory effect of AOA on TH17 cell differentiation: rescued the inhibitory effect of AOA on TH17 differentiation
[2]; in the absence of AOA, analyzed on day 5
  FOXP3 expression under iTreg condition: inhibited FOXP3 expression
[2]
  reversal of the enhancing effect of AOA on iTreg cell differentiation: reversed its enhancing effect on iTreg differentiation
[3]
  FOXP3 mRNA expression: suppressed FOXP3 mRNA expression
[3]; [10]
  Il17/Il17f mRNA level: increased Il17/Il17f mRNA
  Rorc mRNA level: did not affect Rorc mRNA
[4]
  FOXP3 mRNA expression: suppressed FOXP3 mRNA expression
[5]
  methylation level of FOXP3 promoter and its intronic CpG island: dramatically increase methylation level
[6]
  methylation level of FOXP3 promoter and its intronic CpG island: dramatically increase methylation level

## COC(=O)CCC(=O)C(=O)OC [dimethyl-α-KG]
[1]
  rescue of the inhibitory effect of AOA on TH17 cell differentiation: rescued the inhibitory effect of AOA on TH17 differentiation
[2]
  reversal of the enhancing effect of AOA on iTreg cell differentiation: reversed its enhancing effect on iTreg differentiation

## GOT1-1: shRNA targeting GOT1 (SEQ ID NO: 47) in PMKO.1-GFP retrovirus vector (CCGGCCACATGAGAAGACGTTTCTTCTCGAGAAGAAACGTCTTCTCATGTGGTTTTTG)
[7]
  percentage of IL17+ cells: reduced
  proportion of FOXP3+ cells: reciprocally increased

## GOT1-2: shRNA targeting GOT1 (SEQ ID NO: 48) in PMKO.1-GFP retrovirus vector (CCGGGTCGAACAGAAGATTGCTAATCTCGAGATTAGCAATCTTCTGTTCGACTTTTTG)
[7]
  percentage of IL17+ cells: reduced
  proportion of FOXP3+ cells: reciprocally increased

## shRNA against IDH1: shRNA targeting IDH1 (SEQ ID NO: 49) in PMKO.1-GFP retrovirus vector (CCGGCCTGGGCTTAGAATGAGTCTTCTCGAGAAGACTCATTCTAAGCCCAGGTTTTTG)
[8]
  reduction of the percentage of IL-17 producing cells: approximately 30%
[9]
  mRNA expression of IDH1 and/or IDH2: efficiently suppressed the mRNA expression

## shRNA against IDH2: shRNA targeting IDH2 (SEQ ID NO: 50) in PMKO.1-GFP retrovirus vector (CCGGGAAGAGTTCAAGCTGAAGAAACTCGAGTTTCTTCAGCTTGAACTCTTCTTTTTG)
[8]
  reduction of the percentage of IL-17 producing cells: approximately 30%
[9]
  mRNA expression of IDH1 and/or IDH2: efficiently suppressed the mRNA expression
